Legend:
[1] = Compound stability in human liver microsomes; type: in vitro ADME; settings: pH 7.4; for half-life at 5 μM: human liver microsomes 0.5 mg protein/mL, compound 5 μM, NADPH 1.0 mM, 37° C., read-out: Human T1/2; for CLint scaled at 5 μM: human liver microsomes, in vivo CLint extrapolated
Description: (§1) Human or rat liver microsomes incubations were conducted in duplicate in polypropylene tubes. The typical incubation mixtures consisted of human or rat liver microsomes (0.5 mg protein/mL), compounds of interest (5 μM) and NADPH (1.0 mM) in a total volume of 200 μL potassium phosphate buffer (PBS, 100 mM, pH 7.4). Compounds were dissolved in DMSO and diluted with PBS such that the final concentration of DMSO was 0.05%. The enzymatic reactions were commenced with the addition of protein after a 3-min preincubation and incubated in a water bath open to the air at 37° C. Reactions were terminated at various time points (0, 5, 10, 15, 30, 60 min) by adding equal volume of ice-cold acetonitrile. The samples were stored at −80° C. until LC/MS/MS assays.
(§2) The concentrations of compounds in the incubation mixtures of human or rat liver microsomes were determined by a LC/MS/MS method. The ranges of the linearity in the concentration range were determined for each tested compounds.
(§3) A parallel incubation was performed using denatured microsomes as the negative control, and reactions were terminated at various time points (0, 15, 60 min) after incubation at 37° C.
(§4) Dextromethorphan (70 μM) was selected as the positive control, and reactions were terminated at various time points (0, 5, 10, 15, 30, 60 min) after incubation at 37° C. Both positive and negative control samples were included in each assay to ensure the integrity of the microsomal incubation system.
(§5) The concentrations of compounds in human or rat liver microsome incubations were plotted as a percentage of the relevant zero time point control for each reaction. The in vivo CLint were extrapolated (ref.: Naritomi, Y.; Terashita, S.; Kimura, S.; Suzuki, A.; Kagayama, A.; and Sugiyama, Y.; Prediction of human hepatic clearance from in vivo animal experiments and in vitro metabolic studies with liver microsomes from animals and humans. Drug Metab. Dispos., 2001, 29: 1316-1324).

[2] = Compound stability in rat liver microsomes; type: in vitro ADME; settings: pH 7.4; for half-life at 5 μM: rat liver microsomes 0.5 mg protein/mL, compound 5 μM, NADPH 1.0 mM, 37° C., read-out: Rat T1/2; for CLint scaled at 5 μM: rat liver microsomes, in vivo CLint extrapolated
Description: as §1, §2, §3, §4, §5

[3] = Pharmacokinetics after intravenous and oral administration in rats; type: in vivo; settings: for Clearance (CL) after iv dosing / AUC(0-t) / half-life / Vd: dose 1 mg/kg, iv dosing; for F: oral bioavailability, iv dose 1 mg/kg; for AUC(0-t) / half-life / Vd: rat, plasma; for Vd: read-out: Vss
Description: The compounds disclosed herein are assessed in pharmacokinetic studies in mice, rats, dogs or monkeys. The compounds are administered as a water solution, 2% HPMC+1% TWEEN®80 in water solution, 5% DMSO+5% solutol in saline, 4% MC suspension or capsule. For the intravenous administration, the animals are generally given at 0.5, 1 or 2 mg/kg dose. For the oral (p.o.) dosing, mice and rats are generally given 0.5, 1, 5 or 10 mg/kg dose, and dogs and monkeys are generally given 10 mg/kg dose. The blood samples (0.3 mL) are drawn at 0.25, 0.5, 1.0, 2.0, 3.0, 4.0, 6.0, 8.0, 12 and 24 h time points or 0.083, 0.25, 0.5, 1.0, 2.0, 4.0, 6.0, 8.0 and 24 h time points and centrifuged at 3,000 or 4000 rpm for 2 to 10 min. The plasma solutions are collected, and stored at −20° C. or −70° C. until analyzed by LC/MS/MS as described above.

JAK1 (h) = JAK1 (h) (Homo sapiens (Human), UniProt P23458); test: JAK1 (h) kinase activity assay; type: biochemical
Description: (§6) The above assay procedure can be used to determine the IC50 for inhibition and/or the inhibition constant, Ki. The IC50 is defined as the concentration of compound required to reduce the enzyme activity by 50% under the condition of the assay. The IC50 value is estimated by preparing a 10 point curve using a ½ log dilution series (for example, a typical curve may be prepared using the following compound concentrations: 3 μM, 1 μM, 0.3 μM, 0.1 μM, 0.03 μM, 0.01 μM, 0.003 μM, 0.001 μM, 0.0003 μM and 0 μM).
(§7) JAK1 (h) is incubated with 20 mM Tris/HCl pH 7.5, 0.2 mM EDTA, 500 μM GEEPLYWSFPAKKK, 10 mM MgAcetate and [γ-^33P-ATP] (specific activity approx. 500 cpm/pmol, concentration as required). The reaction is initiated by the addition of the MgATP mix. After incubation for 40 minutes at room temperature, the reaction is stopped by the addition of 3% phosphoric acid solution. 10 μL of the reaction is then spotted onto a P30 filtermat and washed three times for 5 minutes in 75 mM phosphoric acid and once in methanol prior to drying and scintillation counting.
(§8) The kinase assays described herein were performed at Millipore UK Ltd, Dundee Technology Park, Dundee DD2 1SW, UK.

Aurora-A (h) = Aurora-A (h) (Homo sapiens (Human), UniProt O14965); test: Aurora-A (h) kinase activity assay; type: biochemical
Description: as §6
as §7, with “Aurora-A (h)” for “JAK1 (h)”, “with 8” for “with 20”, “mM MOPS” for “mM Tris/HCl”, “pH 7.0,” for “pH 7.5,”, “EDTA, 200” for “EDTA, 500”, “μM LRRASLG (Kemptide),” for “μM GEEPLYWSFPAKKK,”
as §8

Sequence of Aurora-A (h) (O14965 whole entry): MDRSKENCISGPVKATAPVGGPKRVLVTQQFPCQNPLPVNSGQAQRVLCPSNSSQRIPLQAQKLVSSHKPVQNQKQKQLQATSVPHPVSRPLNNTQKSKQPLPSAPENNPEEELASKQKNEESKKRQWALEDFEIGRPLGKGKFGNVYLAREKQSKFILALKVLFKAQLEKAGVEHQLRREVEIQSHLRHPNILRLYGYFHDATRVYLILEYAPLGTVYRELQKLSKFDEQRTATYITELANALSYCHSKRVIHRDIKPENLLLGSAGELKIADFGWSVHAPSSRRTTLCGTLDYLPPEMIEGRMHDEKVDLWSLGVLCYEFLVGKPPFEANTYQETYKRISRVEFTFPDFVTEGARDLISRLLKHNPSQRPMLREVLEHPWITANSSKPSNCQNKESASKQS
Sequence of JAK1 (h) (P23458 whole entry): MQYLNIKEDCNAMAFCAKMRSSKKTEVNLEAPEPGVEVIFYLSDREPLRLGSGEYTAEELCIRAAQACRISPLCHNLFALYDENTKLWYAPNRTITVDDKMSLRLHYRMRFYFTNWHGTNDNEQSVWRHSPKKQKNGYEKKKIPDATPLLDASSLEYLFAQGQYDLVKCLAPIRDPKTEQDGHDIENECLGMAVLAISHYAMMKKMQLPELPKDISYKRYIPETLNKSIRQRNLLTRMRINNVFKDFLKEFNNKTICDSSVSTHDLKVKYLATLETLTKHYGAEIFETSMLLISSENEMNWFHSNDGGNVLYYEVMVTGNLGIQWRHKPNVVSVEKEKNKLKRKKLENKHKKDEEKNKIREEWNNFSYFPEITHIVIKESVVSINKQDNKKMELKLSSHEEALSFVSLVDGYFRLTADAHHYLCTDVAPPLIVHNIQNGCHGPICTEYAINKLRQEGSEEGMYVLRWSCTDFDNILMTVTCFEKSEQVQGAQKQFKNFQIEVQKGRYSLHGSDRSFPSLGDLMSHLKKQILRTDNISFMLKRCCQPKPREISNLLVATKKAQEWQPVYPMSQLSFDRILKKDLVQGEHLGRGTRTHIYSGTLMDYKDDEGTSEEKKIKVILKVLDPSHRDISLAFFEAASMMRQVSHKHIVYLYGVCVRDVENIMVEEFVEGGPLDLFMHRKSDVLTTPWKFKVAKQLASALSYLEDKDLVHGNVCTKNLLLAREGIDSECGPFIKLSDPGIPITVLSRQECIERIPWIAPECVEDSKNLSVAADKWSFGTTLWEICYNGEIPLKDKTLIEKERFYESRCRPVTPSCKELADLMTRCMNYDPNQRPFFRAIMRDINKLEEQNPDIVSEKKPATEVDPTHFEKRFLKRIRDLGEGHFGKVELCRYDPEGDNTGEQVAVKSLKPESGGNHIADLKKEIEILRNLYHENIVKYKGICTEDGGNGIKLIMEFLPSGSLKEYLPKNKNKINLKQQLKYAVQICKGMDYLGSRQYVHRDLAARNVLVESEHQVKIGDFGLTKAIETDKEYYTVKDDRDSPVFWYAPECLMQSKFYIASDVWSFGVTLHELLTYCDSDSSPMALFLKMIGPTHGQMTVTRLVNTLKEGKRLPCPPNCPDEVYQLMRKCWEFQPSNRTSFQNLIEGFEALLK

SMILES | half-life at 5 μM [1] [min] | CLint scaled at 5 μM [1] [mL/min/kg] | half-life at 5 μM [2] [min] | CLint scaled at 5 μM [2] [mL/min/kg] | Clearance (CL) after iv dosing [3] [mL/min/kg] | F [3] [%] | AUC(0-t) [3] [ng·h/mL] | half-life [3] [min] | Vd [3] [L/kg] | IC50 (JAK1 (h)) [nM] | IC50 (Aurora-A (h)) [nM]
Cn1cc(Nc2ncc(Cl)c(NC3CC4CN(C(=O)C5CC5)CC4C3)n2)cn1 (stereo not shown) [Ex. 14, (5-((5-chloro-2-((1-methyl-1H-pyrazol-4-yl)amino)pyrimidin-4-yl)amino)hexahydrocyclopenta[c]pyrrol-2(1H)-yl)(cyclopropyl)methanone] | 44.2 | 39.4 | 3.33 | 745 |  |  |  |  |  | 6 | 21
Cn1cc(Nc2ncc(Cl)c(NC3CC4CN(CC(C)(C)O)CC4C3)n2)cn1 (stereo not shown) [Ex. 16, 1-(5-((5-chloro-2-((1-methyl-1H-pyrazol-4-yl)amino)pyrimidin-4-yl)amino)hexahydrocyclopenta[c]pyrrol-2(1H)-yl)-2-methylpropan-2-ol] | 210 | 8.27 | 6.28 | 395 |  |  |  |  |  | 32 | 
Cn1cc(Nc2ncc(Cl)c(NC3CC4CN(c5ccc(C#N)nn5)CC4C3)n2)cn1 (stereo not shown) [Ex. 30, 6-(5-((5-chloro-2-((1-methyl-1H-pyrazol-4-yl)amino)pyrimidin-4-yl)amino)hexahydrocyclopenta[c]pyrrol-2(1H)-yl)pyridazine-3-carbonitrile] | 24.9 | 69.8 | 8.07 | 308 | 15.5 | 268.4 | 1140 | 36.6 | 0.71 |  | 
Cn1cc(Nc2ncc(Cl)c(NC3CC4CN(S(=O)(=O)C(C)(C)C)CC4C3)n2)cn1 (stereo not shown) [Ex. 31, N^4-(2-(tert-butylsulfonyl)octahydrocyclopenta[c]pyrrol-5-yl)-5-chloro-N^2-(1-methyl-1H-pyrazol-4-yl)pyrimidine-2,4-diamine] |  |  |  |  |  |  |  |  |  |  | 50
CC(O)Cn1cc(Nc2ncc(Cl)c(NC3CC4CN(C(=O)NC5CC5)CC4C3)n2)cn1 (stereo not shown) [Ex. 41, 5-((5-chloro-2-((1-(2-hydroxypropyl)-1H-pyrazol-4-yl)amino)pyrimidin-4-yl)amino)-N-cyclopropylhexahydrocyclopenta[c]pyrrole-2(1H)-carboxamide] | 73.5 | 23.7 | 43.7 | 56.8 |  |  |  |  |  |  | 19
CC(C)(O)Cn1cc(Nc2ncc(Cl)c(NC3CC4CN(S(=O)(=O)NC5CC5)CC4C3)n2)cn1 (stereo not shown) [Ex. 43, 5-((5-chloro-2-((1-(2-hydroxy-2-methylpropyl)-1H-pyrazol-4-yl)amino)pyrimidin-4-yl)amino)-N-cyclopropylhexahydrocyclopenta[c]pyrrole-2(1H)-sulfonamide] |  |  |  |  |  |  |  |  |  |  | 9

Further lines, results first:

half-life at 5 μM [1] [min] | CLint scaled at 5 μM [1] [mL/min/kg] | half-life at 5 μM [2] [min] | CLint scaled at 5 μM [2] [mL/min/kg] | Clearance (CL) after iv dosing [3] [mL/min/kg] | F [3] [%] | AUC(0-t) [3] [ng·h/mL] | half-life [3] [min] | Vd [3] [L/kg] | IC50 (JAK1 (h)) [nM] | IC50 (Aurora-A (h)) [nM] | SMILES
148 | 11.7 | 112 | 22.2 | 46.2 | 61.7 | 360 | 38.4 | 1.53 | 10 | 58 | CC(=O)N1CC2CC(Nc3nc(Nc4cnn(CC(C)(C)O)c4)ncc3Cl)CC2C1 (stereo not shown) [Ex. 1, 1-(5-((5-chloro-2-((1-(2-hydroxy-2-methylpropyl)-1H-pyrazol-4-yl)amino)pyrimidin-4-yl)amino)hexahydrocyclopenta[c]pyrrol-2(1H)-yl)ethanone]
106 | 16.4 | 107 | 23.3 |  |  |  |  |  | 2 | 28 | CC(C)(O)Cn1cc(Nc2ncc(Cl)c(NC3CC4CN(C(=O)CC#N)CC4C3)n2)cn1 (stereo not shown) [Ex. 2, 3-(5-((5-chloro-2-((1-(2-hydroxy-2-methylpropyl)-1H-pyrazol-4-yl)amino)pyrimidin-4-yl)amino)hexahydrocyclopenta[c]pyrrol-2(1H)-yl)-3-oxopropanenitrile]
 |  |  |  | 60.2 | 30.5 | 278 | 14.4 | 0.99 | 12 | 17 | Cn1cc(Nc2ncc(Cl)c(NC3CC4CN(C(=O)CC5CC5)CC4C3)n2)cn1 (stereo not shown) [Ex. 12, 1-(5-((5-chloro-2-((1-methyl-1H-pyrazol-4-yl)amino)pyrimidin-4-yl)amino)hexahydrocyclopenta[c]pyrrol-2(1H)-yl)-2-cyclopropylethanone]
33.1 | 52.5 | 5.48 | 454 |  |  |  |  |  |  | 5 | Cn1cc(Nc2ncc(Cl)c(NC3CC4CN(S(=O)(=O)C5CC5)CC4C3)n2)cn1 (stereo not shown) [Ex. 13, 5-chloro-N^4-(2-(cyclopropylsulfonyl)octahydrocyclopenta[c]pyrrol-5-yl)-N^2-(1-methyl-1H-pyrazol-4-yl)pyrimidine-2,4-diamine]
35.7 | 48.6 | 7.15 | 347 | 54.2 | 37.3 | 308 | 17.4 | 1.44 |  | 6 | Cn1cc(Nc2ncc(Cl)c(NC3CC4CN(S(=O)(=O)CC5CC5)CC4C3)n2)cn1 (stereo not shown) [Ex. 17, 5-chloro-N^4-(2-((cyclopropylmethyl)sulfonyl)octahydrocyclopenta[c]pyrrol-5-yl)-N^2-(1-methyl-1H-pyrazol-4-yl)pyrimidine-2,4-diamine]
 |  |  |  |  |  |  |  |  |  | 12 | O=C(NC1CC1)N1CC2CC(Nc3nc(Nc4cnn(C5CCNC5)c4)ncc3Cl)CC2C1 (stereo not shown) [Ex. 40, 5-((5-chloro-2-((1-(pyrrolidin-3-yl)-1H-pyrazol-4-yl)amino)pyrimidin-4-yl)amino)-N-cyclopropylhexahydrocyclopenta[c]pyrrole-2(1H)-carboxamide]
310 | 5.6 | 100 | 24.8 | 34.7 | 40.7 | 485 | 43.2 | 0.81 |  |  | CC(=O)N1CC2CC(CC#N)(Nc3nc(Nc4cnn(C)c4)ncc3Cl)CC2C1 (stereo not shown) [Ex. 48, 2-(2-acetyl-5-((5-chloro-2-((1-methyl-1H-pyrazol-4-yl)amino)pyrimidin-4-yl)amino)octahydrocyclopenta[c]pyrrol-5-yl)acetonitrile]
